Literature values, collected in US20040204435A1, “Alternating treatment with topoisomerase I and topoisomerase II inhibitors” (priority 2003, published 2004).

What was measured:
[1] = for clinical effectiveness: cancer patients
[2] = humans, plasma
[3] = mouse plasma
[4] = carboxylate versus CPT (lactone)
[5] = not given; remark: listed apart in the source

Row | SMILES | clinical effectiveness [1] | effect on human tumor xenografts in nude mice (human tumor xenografts) | solubility in water | also measured
1 | CC[C@@]1(O)C(=O)OCc2c1cc1n(c2=O)Cc2cc3c(N)cccc3nc2-1 [9-aminocamptothecin] | insufficiently effective | completely eradicate |  | 
2 | CC[C@@]1(O)C(=O)OCc2c1cc1n(c2=O)Cc2cc3c([N+](=O)[O-])cccc3nc2-1 [9NC, 9-nitrocamptothecin] | less effective against human pancreas tumors in humans than against human cancer xenografts in nude mice | completely eradicate |  | drug circulating as lactone [2]: 2-5%; administered dose circulating as active lactone form [3]: Up to 50%
3 | CCC(O)(C(=O)O)c1cc2n(c(=O)c1CO)Cc1cc3ccccc3nc1-2 (stereo not shown) [CPT carboxylate] |  |  | soluble | anticancer activity relative to CPT [4]: ~10%
4 | CC[C@@]1(O)C(=O)OCc2c1cc1n(c2=O)Cc2cc3ccccc3nc2-1 [CPT lactone] |  |  | insoluble | 
5 | CC[C@@]1(O)C(=O)OCc2c1cc1n(c2=O)Cc2cc3ccccc3nc2-1 [CPT, Camptothecin] | much less effective in cancer patients than in mice | completely eradicate |  | dose-limiting toxicity ([1]; clinical trials (9NC: phase I-II)): diarrhea
6 | CCc1c2c(nc3ccc(OC(=O)N4CCC(N5CCCCC5)CC4)cc13)-c1cc3c(c(=O)n1C2)COC(=O)[C@]3(O)CC [Camptosar, irinotecan] |  |  | water soluble | 
7 | CC[C@@]1(O)C(=O)OCc2c1cc1n(c2=O)Cc2cc3c(CN(C)C)c(O)ccc3nc2-1 [Topotecan] |  |  | water soluble | 
8 | CC[C@@](O)(C(=O)[O-])c1cc2n(c(=O)c1CO)Cc1cc3ccccc3nc1-2.[Na+] [sodium salt of CPT] |  |  |  | toxicities ([5]; in vivo): myelosuppression, diarrhea and cystitis; clinical benefit ([5]; phase I and II trials 1970-1972): no clinical benefit
